Experimental data taken from US20160038454A1, “INTRAVENOUS FORMULATIONS OF […] AS IMMUNOMODULATORS AND […] AGENTS” (priority 2013, published 2016).
Converted amounts (≈) assume the structure as drawn.

Columns and labels:
[1] = Conversion to triptolide using human serum; format: in vitro ADME
Text: (Xia Zhi Lin and Zhen You Lan, Haematologica, 93:14 (2008)).

[2] = Solubility of PG796(MRx102) in triglyceride oils (GTO vs SBO); format: physicochemical; settings: glyceryl trioctanoate vs soybean oil
[3] = PG796(MRx102) solubility in emulsion formulations; format: physicochemical; settings: emulsion formulation, aqueous with cosolvent or surfactant or cyclodextrin
Description: Various ratios of the nonionic surfactants polysorbate 80 (a.k.a. Tween 80) and Span 80 were explored, and a formulation was prepared and tested as follows. […] The results of this preliminary experiment were encouraging in that a reasonably high solubility was obtained in a formulation containing almost 70% water.
Emulsion formulations were prepared using a probe sonicator to disperse the oil phase in the aqueous phase to form a creamy opaque suspension.
Typical emulsion formulations consist of 10-30% triglyceride, most commonly SBO, dispersed with 0.5-2% phospholipids in an aqueous phase, which contains glycerin as a tonicity agent. […] Additionally, PEG-400 and ethanol were incorporated into some of the formulations to decrease the polarity of the aqueous phase to enhance solubility. Sodium cholate was included in some formulations as a co-surfactant. Solubility of at least 1 mg/mL was obtained in all of the formulations. In each case some loss of potency was observed after eight days of storage, but the majority of the original potency was maintained.
(§1) Pharmaceutical emulsions are typically prepared at neutral to slightly alkaline pH since they are stabilized by electrostatic repulsion between droplets imparted by pH-sensitive anionic surfactants, such as phosphatidyl ethanolamine, free fatty acid salts, and cholate. However, it was possible that this pH range could be suboptimal for the chemical stability of PG796(MRx102). To test this, emulsions were prepared at different pH values ranging from 4 to 8. Buffers were included to control the pH, and the non-pH sensitive surfactant, sodium dodecyl sulfate was used in place of sodium cholate to assure a negative charge even in the low pH emulsions. All of the formulations were reasonably stable for up to 2 weeks at room temperature. […]

[4] = PG796(MRx102) purity (peak area %) / stability in emulsions; format: physicochemical
Description: as §1

[5] = Rodent toxicology study, intravenous, seven days; format: in vivo, rodents; settings: in vivo, iv; intravenously for seven days in rodents; read-out: no effect dose (NOAEL)
Description: (§2) Triptolide prodrugs are generally believed to be safer than triptolide. […] Triptolide prodrugs as an emulsion formulation are believed to have a toxicokinetic profile characterized by a flat AUC with a minimized Cmax. [In conjunction, it was postulated that a sustained inhibition of RNA polymerase is needed for optimum efficacy which in turn requires a pharmcokinetic profile of constant exposure to drug]. […] The no effect dose (“NOAEL”) of PG796(MRx102) again exceeded 1.5 mg/kg/day intravenously for seven days in rodents confirming the initial results. It is interesting to ask why a prodrug of triptolide would be safer than the natural product itself; while not wishing to be bound by theory, perhaps the answer lies in the pharmacokinetic profile of triptolide administered either directly or released from its carrier, PG796(MRx102). […] It also remained above the therapeutic levels (shown as a thick line without symbols). The difference in the Cmax/AUC profile of PG796(MRx102) vs. triptolide is believed to be due to the physiochemical properties of the lipid prodrug/emulsion formulation combination. In general, triptolide prodrugs having a cLogP greater than 0.5 are more lipid-soluble than water soluble and are expected to take longer to convert to the drug form; such characteristics may yield a flatter conversion profile and less of a drug-release Cmax spike.

rodents = assay: Rodent toxicology study, intravenous, seven days; format: in vivo
Description: as §2

[6] = TK: plasma triptolide levels, Calvert study (emulsion); format: in vivo, rodents; settings: FIG. 1
Description: as §2
TK comparison of triptolide levels in Calvert and SRI studies—Males and Females

NF-κB, Mcl-1 and XIAP = settings: cited from earlier work
[7] = tested on: bulk, CD34(+) progenitor and CD34(+)CD38(−) stem/progenitor cells from AML patients; settings: low nanomolar concentrations; also in coculture with mesenchymal stromal cells; Carter et al. 2012; cited from earlier work
Ba/F3-ITD cells = settings: mice harboring Ba/F3-ITD cells; Carter et al. 2012; cited from earlier work
[8] = emulsion target pH 4.0 (acetate)
[9] = emulsion target pH 5.0 (acetate)
[10] = emulsion target pH 6.0 (histidine)
[11] = emulsion target pH 7.0 (phosphate)

SMILES: CC(C)[C@]12O[C@H]1[C@@H]1O[C@]13[C@]1(O[C@H]1C[C@H]1c4c(C(=O)c5ccccc5)oc(OC(=O)c5ccccc5)c4CC[C@@]13C)[C@@H]2O [PG796, 18-deoxo-19-dehydro-18-benzoyloxy-19-benzoyl triptolide]
- conversion to triptolide in human serum [1]: rapidly and completely converted
- solubility in GTO relative to SBO [2]: about 3.4 fold
- solubility at 0 hr [3, 8]: 870 µg/mL (≈ 1530 µM)
- solubility at 1 wk [3, 8]: 1000 µg/mL (≈ 1760 µM)
- solubility at 2 wk [3, 8]: 848 µg/mL (≈ 1490 µM)
- solubility at 24 hr [3, 8]: 917 µg/mL (≈ 1610 µM)
- solubility at 0 hr [3, 9]: 1010 µg/mL (≈ 1770 µM)
- solubility at 1 wk [3, 9]: 972 µg/mL (≈ 1710 µM)
- solubility at 2 wk [3, 9]: 910 µg/mL (≈ 1600 µM)
- solubility at 24 hr [3, 9]: 922 µg/mL (≈ 1620 µM)
- solubility at 0 hr [3, 10]: 1090 µg/mL (≈ 1920 µM)
- solubility at 1 wk [3, 10]: 948 µg/mL (≈ 1670 µM)
- solubility at 2 wk [3, 10]: 850 µg/mL (≈ 1490 µM)
- solubility at 24 hr [3, 10]: 890 µg/mL (≈ 1570 µM)
- solubility at 0 hr [3, 11]: 996 µg/mL (≈ 1750 µM)
- solubility at 1 wk [3, 11]: 760 µg/mL (≈ 1340 µM)
- solubility at 2 wk [3, 11]: 822 µg/mL (≈ 1450 µM)
- solubility at 24 hr [3, 11]: 849 µg/mL (≈ 1490 µM)
- solubility at 0 hr ([3]; emulsion target pH 8.0 (Tris)): 929 µg/mL (≈ 1630 µM)
- solubility at 1 wk ([3]; emulsion target pH 8.0 (Tris)): 1040 µg/mL (≈ 1830 µM)
- solubility at 2 wk ([3]; emulsion target pH 8.0 (Tris)): 930 µg/mL (≈ 1640 µM)
- solubility at 24 hr ([3]; emulsion target pH 8.0 (Tris)): 929 µg/mL (≈ 1630 µM)
- solubility ([3]; preliminary emulsion: 29.4% GTO, 1.65% Span 80, 0.31% Tween 80, 68.6% water): 681 µg/mL (≈ 1200 µM)
- PG796 (MRx102) Purity ([4]; emulsion target pH 4.0 (acetate), 0 hr): 98.9 peak area %
- PG796 (MRx102) Purity ([4]; emulsion target pH 4.0 (acetate), 1 wk): 98.9 peak area %
- PG796 (MRx102) Purity ([4]; emulsion target pH 4.0 (acetate), 2 wk): 97.2 peak area %
- PG796 (MRx102) Purity ([4]; emulsion target pH 4.0 (acetate), 24 hr): 99.3 peak area %
- PG796 (MRx102) Purity ([4]; emulsion target pH 5.0 (acetate), 0 hr): 99.2 peak area %
- PG796 (MRx102) Purity ([4]; emulsion target pH 5.0 (acetate), 1 wk): 99.1 peak area %
- PG796 (MRx102) Purity ([4]; emulsion target pH 5.0 (acetate), 2 wk): 98.3 peak area %
- PG796 (MRx102) Purity ([4]; emulsion target pH 5.0 (acetate), 24 hr): 99.4 peak area %
- PG796 (MRx102) Purity ([4]; emulsion target pH 6.0 (histidine), 0 hr): 99.2 peak area %
- PG796 (MRx102) Purity ([4]; emulsion target pH 6.0 (histidine), 1 wk): 98.9 peak area %
- PG796 (MRx102) Purity ([4]; emulsion target pH 6.0 (histidine), 2 wk): 98.8 peak area %
- PG796 (MRx102) Purity ([4]; emulsion target pH 6.0 (histidine), 24 hr): 99.2 peak area %
- PG796 (MRx102) Purity ([4]; emulsion target pH 7.0 (phosphate), 0 hr): 99.4 peak area %
- PG796 (MRx102) Purity ([4]; emulsion target pH 7.0 (phosphate), 1 wk): 98.8 peak area %
- PG796 (MRx102) Purity ([4]; emulsion target pH 7.0 (phosphate), 2 wk): 91.0 peak area %
- PG796 (MRx102) Purity ([4]; emulsion target pH 7.0 (phosphate), 24 hr): 99.1 peak area %
- PG796 (MRx102) Purity ([4]; emulsion target pH 8.0 (Tris), 0 hr): 98.7 peak area %
- PG796 (MRx102) Purity ([4]; emulsion target pH 8.0 (Tris), 1 wk): 99.1 peak area %
- PG796 (MRx102) Purity ([4]; emulsion target pH 8.0 (Tris), 2 wk): 98.3 peak area %
- PG796 (MRx102) Purity ([4]; emulsion target pH 8.0 (Tris), 24 hr): 99.2 peak area %
- pH dependence of stability of PG796(MRx102) in the emulsion ([4]; pH 4 to 8): not pH-dependent
- NOAEL at 7 days [5]: > 1.5 mg/kg/day
- gross or histopathologic toxic effects (rodents; intravenous doses up to 1.5 mg/kg/day for seven days, initial rodent toxicology study): no gross or histopathologic toxic effects
- toxicity relative to triptolide (times less toxic) (rodents; intravenous, emulsion formulation, rodents, gross and histopathologic criteria): at least 20 times
- triptolide Cmax after prodrug relative to triptolide administered directly ([6]; intravenous, emulsion): approximately one-tenth
- triptolide blood levels over time ([6]; prodrug administered): remained relatively constant
- effect on mRNA levels, NF-κB, Mcl-1 and XIAP (NF-κB, Mcl-1 and XIAP): reduced mRNA levels, reduced NF-κB and reduced Mcl-1 and XIAP
- apoptosis in cells from AML patients [7]: induced apoptosis
- leukemia burden (Ba/F3-ITD cells): greatly decreased
- survival time (Ba/F3-ITD cells): increased
